# According to patent US20220128542A1, “TREATMENT EFFICIENCY EVALUATION” (TX MEDIC AB, priority 2019, published 2022):
# Key:
# Human Schwann cells = assay: Gene expression array and pathway/upstream regulator analysis in Schwann cells (Example 2); type: cell-based; conditions: 0.01 mg/ml
# Procedure: (§1) For each cell line, n=8×25 cm^2 culture flasks were set up. Two flasks were harvested for each cell type on the day of treatment (24 hours after seeding). This represents the Day0 time point. From the remaining flasks, three flasks were treated with Control Medium and three were treated with Culture Medium (CM) containing LMW-DS to give a final concentration of 0.01 mg/ml. Cells from the treated flasks were collected after 48 hours. Therefore the collected data represent (a) untreated cells (Day0 Controls and Day2 Controls) and (b) cells treated with LMW-DS for 48 hours (Day2 LMW-DS treated).
# (§2) 25 cm^2 flasks were coated by adding 2 ml per flask of a solution of 50 μg/ml poly-d-lysine in Hank's balanced salt solution (HBSS) and incubating overnight at 37° C. in the dark. Flasks were washed with cell culture water and air-dried for 30 min in the dark. Flasks were coated by adding 1 ml per flask of a solution of 25 μg/ml laminin in phosphate-buffered saline (PBS) and incubating for 2 hour at 37° C. in the dark. The laminin flasks were washed with PBS three times before plating cells.
# Schwann cells growth medium was prepared by adding 10% of fetal bovine serum (FBS) to high-glucose DMEM and pre-warmed to 37° C. Cells were thawed in a 37° C. water bath for no longer than 2 min.
# Cells from 12 vials were each gently transferred to a tube containing 10 ml of high-glucose DMEM medium and centrifuged at 400 relative centrifugal field (RCF) for 10 min. Pellet was re-suspended in culture medium. The cells from the 12 vials were mixed and distributed equally into the previously coated 25 cm^2 flasks (n=8). Cells were incubated at 37° C. with 5% CO2. Cells were allowed to settle for 24 hours before LMW-DS treatment.
# (§3) A fresh 100× LMW-DS stock (1.0 mg/ml) was prepared in sterile DMEM-F12. The concentrated drug stock was sterile filtered and added to the respective culture media (19.6 ml CM and 0.4 ml LMW-DS stock solution). The Control was made using 19.6 ml CM and 0.4 ml of DMEM-F12. LMW-DS and CM were added to the respective flasks (5 ml each) to reach the 0.01 mg/ml concentration of LMW-DS in each dish with a total of 10 ml CM each.
# (§4) CM was aspirated into a clean and labelled 15 ml Falcon tube. The flasks (without culture medium) were placed into the −80° C. freezer for 30 minutes. The CM in the Falcon tubes was spun at 3000×g for 5 minutes. Supernatant was removed and the small pellet was re-suspended in 2.5 ml Trizol:Water (4:1) solution at room temperature (RT, ˜22° C.).
# (§5) The frozen flasks were removed one-by one from the freezer and the Trizol-Water from the appropriate tubes was moved to the flask. Flasks were left at RT for 5 minutes before the content was aspirated back into the 15 ml Falcon tube (after washing the bottom of the flask with the solution thoroughly). The flasks were inspected under the microscope to ensure full removal of cells. The collected lysates in the 15 ml Falcon tubes were placed into the −80° C. freezer.
# (§6) Falcon tubes containing the homogenates were removed from the freezer and stored for 5 minutes at RT to permit the complete dissociation of nucleoprotein complexes.
# (§7) Two aliquots of 1 ml lysate were removed from each sample and 200 μl of chloroform was added to each (0.2 ml of chloroform per 1 ml of TRIzol Reagent used during the cell lysis step) and the tube was shaken vigorously. Samples were stored at RT for 2-3 minutes and subsequently centrifuged at 12,000×g for 15 minutes at 4° C.
# (§8) The mixture separated into three layers: a lower red phenol-chloroform phase, an interphase and a colorless upper aqueous phase. The RNA remained in the top aqueous phase, DNA in the white middle (interphase) phase and protein in the pink bottom (organic) phase. The top ¾ of the aqueous phase was transferred to a new clean Eppendorf tube.
# (§9) The RNA was precipitated from the aqueous phase by adding an equal amount of 100% ethanol. The precipitated RNA was fixed onto a Spin Cartridge, washed twice and dried. […]
# Mouse motor neurons = assay: Gene expression array and pathway/upstream regulator analysis in motor neurons (Example 2); type: cell-based; conditions: 0.01 mg/ml
# Procedure: as §1, §2
# The culture medium was prepared according to Table 5.
# Medium (see Table 5) was pre-warmed to 37° C. Cells were thawed in a 37° C. water bath for no longer than 2 min. 9 ml of media was gently added drop-wise. The cell suspension was mixed by inverting the tube carefully twice. The cells were counted with a Cellometer. The cells were centrifuged for 5 minutes at 200×g. Supernatant was removed (to the last 0.5 ml) and cells were gently re-suspended by trituration. The cells from the 8 vials were mixed and distributed equally into the previously coated 25 cm^2 flasks (n=8). Cells were incubated at 37° C. with 5% CO2 for 24 hours before treatment.
# as §3, §4, §5, §6, §7, §8, §9
# [1] = D0 control vs D2 LMW-DS treated
substance,measurement,setting,value
sodium salt of dextran sulfate [LMW-DS],number of genes: no effect / abolished nutrient effect,Human Schwann cells; 48 hours,21
same,number of genes: no effect / total,Human Schwann cells; 48 hours,21
same,number of genes: significant downregulation / abolished nutrient effect,Human Schwann cells; 48 hours,1
same,number of genes: significant downregulation / enhanced response to nutrients,Human Schwann cells; 48 hours,122
same,number of genes: significant downregulation / new effect induced by LMW-DS,Human Schwann cells; 48 hours,352
same,number of genes: significant downregulation / not different from control,Human Schwann cells; 48 hours,42
same,number of genes: significant downregulation / total,Human Schwann cells; 48 hours,517
same,number of genes: significant upregulation / abolished nutrient effect,Human Schwann cells; 48 hours,13
same,number of genes: significant upregulation / enhanced response to nutrients,Human Schwann cells; 48 hours,441
same,number of genes: significant upregulation / new effect induced by LMW-DS,Human Schwann cells; 48 hours,74
same,number of genes: significant upregulation / not different from control,Human Schwann cells; 48 hours,373
same,number of genes: significant upregulation / total,Human Schwann cells; 48 hours,901
same,number of genes: total / abolished nutrient effect,Human Schwann cells; 48 hours,35
same,number of genes: total / enhanced response to nutrients,Human Schwann cells; 48 hours,563
same,number of genes: total / new effect induced by LMW-DS,Human Schwann cells; 48 hours,426
same,number of genes: total / not different from control,Human Schwann cells; 48 hours,415
same,number of genes: total / total,Human Schwann cells; 48 hours,1439
same,differentially expressed genes,Human Schwann cells; [1],1244 genes
same,differentially expressed genes,Human Schwann cells; D2 control vs D2 LMW-DS treated,700 genes
same,number of genes: no effect / abolished nutrient effect,Mouse motor neurons; 48 hours,177
same,number of genes: no effect / new effect induced by LMW-DS,Mouse motor neurons; 48 hours,108
same,number of genes: no effect / total,Mouse motor neurons; 48 hours,285
same,number of genes: significant downregulation / abolished nutrient effect,Mouse motor neurons; 48 hours,47
same,number of genes: significant downregulation / enhanced response to nutrients,Mouse motor neurons; 48 hours,36
same,number of genes: significant downregulation / new effect induced by LMW-DS,Mouse motor neurons; 48 hours,375
same,number of genes: significant downregulation / not different from control,Mouse motor neurons; 48 hours,104
same,number of genes: significant downregulation / total,Mouse motor neurons; 48 hours,562
same,number of genes: significant upregulation / abolished nutrient effect,Mouse motor neurons; 48 hours,40
same,number of genes: significant upregulation / enhanced response to nutrients,Mouse motor neurons; 48 hours,103
same,number of genes: significant upregulation / new effect induced by LMW-DS,Mouse motor neurons; 48 hours,71
same,number of genes: significant upregulation / not different from control,Mouse motor neurons; 48 hours,75
same,number of genes: significant upregulation / total,Mouse motor neurons; 48 hours,289
same,number of genes: total / abolished nutrient effect,Mouse motor neurons; 48 hours,264
same,number of genes: total / enhanced response to nutrients,Mouse motor neurons; 48 hours,139
same,number of genes: total / new effect induced by LMW-DS,Mouse motor neurons; 48 hours,554
same,number of genes: total / not different from control,Mouse motor neurons; 48 hours,179
same,number of genes: total / total,Mouse motor neurons; 48 hours,1136
same,differentially expressed genes,Mouse motor neurons; [1],315 genes
same,differentially expressed genes,Mouse motor neurons; second comparison,425 genes
